≈ marks a conversion by molar mass, not a printed value. Calls of active or inactive are those of the source. No cut-off for these calls is given here.
Columns and labels:
Rattus norvegicus [1] = assay: Oral bioavailability in rat assessed as 2-(2-methyl-4-oxo-3-(2-(phenylsulfonyl)benzyl)-4,5,6,7-tetrahydro-1H-pyrrolo[3,2-c]pyridin-1-yl)acetic acid at 10 mg/kg; assay type: ADME, organism-based; conditions: in vivo
Rattus norvegicus [2] = assay: Terminal half life in rat assessed as 2-(2-methyl-4-oxo-3-(2-(phenylsulfonyl)benzyl)-4,5,6,7-tetrahydro-1H-pyrrolo[3,2-c]pyridin-1-yl)acetic acid at 10 mg/kg, po; assay type: ADME, organism-based; parameters: dose 10 mg/kg, route oral; conditions: in vivo
Rattus norvegicus [3] = assay: AUC (0 to infinity) in rat assessed as 2-(2-methyl-4-oxo-3-(2-(phenylsulfonyl)benzyl)-4,5,6,7-tetrahydro-1H-pyrrolo[3,2-c]pyridin-1-yl)acetic acid at 10 mg/kg, po; assay type: ADME, organism-based, Plasma; parameters: time infinity, dose 10 mg/kg, route oral; conditions: in vivo
Rattus norvegicus [4] = assay: Terminal half life in rat assessed as 2-(2-methyl-4-oxo-3-(2-(phenylsulfonyl)benzyl)-4,5,6,7-tetrahydro-1H-pyrrolo[3,2-c]pyridin-1-yl)acetic acid at 1 mg/kg, iv; assay type: ADME, organism-based; parameters: dose 1 mg/kg, route intravenous; conditions: in vivo
Rattus norvegicus [5] = assay: AUC (0 to infinity) in rat assessed as 2-(2-methyl-4-oxo-3-(2-(phenylsulfonyl)benzyl)-4,5,6,7-tetrahydro-1H-pyrrolo[3,2-c]pyridin-1-yl)acetic acid at 1 mg/kg, iv; assay type: ADME, organism-based, Plasma; parameters: time infinity, dose 1 mg/kg, route intravenous; conditions: in vivo
Rattus norvegicus [6] = assay: Cmax in rat assessed as 2-(2-methyl-4-oxo-3-(2-(phenylsulfonyl)benzyl)-4,5,6,7-tetrahydro-1H-pyrrolo[3,2-c]pyridin-1-yl)acetic acid at 1 mg/kg, iv; assay type: ADME, organism-based; parameters: dose 1 mg/kg, route intravenous; conditions: in vivo
Rattus norvegicus [7] = assay: Cmax in rat assessed as 2-(2-methyl-4-oxo-3-(2-(phenylsulfonyl)benzyl)-4,5,6,7-tetrahydro-1H-pyrrolo[3,2-c]pyridin-1-yl)acetic acid at 10 mg/kg, po; assay type: ADME, organism-based; parameters: dose 10 mg/kg, route oral; conditions: in vivo
Rattus norvegicus [8] = assay: Volume of distribution at steady state in rat assessed as 2-(2-methyl-4-oxo-3-(2-(phenylsulfonyl)benzyl)-4,5,6,7-tetrahydro-1H-pyrrolo[3,2-c]pyridin-1-yl)acetic acid at 1 mg/kg, iv; assay type: ADME, organism-based; parameters: dose 1 mg/kg, route intravenous; conditions: in vivo
[9] = biological target: T1, Thromboxane A2 receptor (Homo sapiens) (UniProt P21731); assay: Inhibition of at prostanoid TP receptor (unknown origin) at 10 uM
T1 sequence (whole entry): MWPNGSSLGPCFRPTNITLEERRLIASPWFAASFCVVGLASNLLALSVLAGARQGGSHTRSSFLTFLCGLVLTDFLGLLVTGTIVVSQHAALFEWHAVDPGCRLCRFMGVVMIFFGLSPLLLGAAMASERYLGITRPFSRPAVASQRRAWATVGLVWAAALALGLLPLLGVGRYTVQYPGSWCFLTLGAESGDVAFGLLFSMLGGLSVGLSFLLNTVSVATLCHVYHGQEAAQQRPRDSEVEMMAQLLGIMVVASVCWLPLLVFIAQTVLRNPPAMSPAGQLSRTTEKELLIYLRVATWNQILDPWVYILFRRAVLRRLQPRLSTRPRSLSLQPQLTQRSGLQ

[10] = biological target: T2, Prostaglandin D2 receptor 2 (Homo sapiens, UniProt Q9Y5Y4); assay: Antagonist activity at CRTh2 (unknown origin) stably expressed in PGD2-stimulated CHO.K1 cells preincubated for 1 hr by radio-labelled [35S]-GTPgammaS binding assay; assay type: functional, cell-based
T2 sequence (Q9Y5Y4 whole entry): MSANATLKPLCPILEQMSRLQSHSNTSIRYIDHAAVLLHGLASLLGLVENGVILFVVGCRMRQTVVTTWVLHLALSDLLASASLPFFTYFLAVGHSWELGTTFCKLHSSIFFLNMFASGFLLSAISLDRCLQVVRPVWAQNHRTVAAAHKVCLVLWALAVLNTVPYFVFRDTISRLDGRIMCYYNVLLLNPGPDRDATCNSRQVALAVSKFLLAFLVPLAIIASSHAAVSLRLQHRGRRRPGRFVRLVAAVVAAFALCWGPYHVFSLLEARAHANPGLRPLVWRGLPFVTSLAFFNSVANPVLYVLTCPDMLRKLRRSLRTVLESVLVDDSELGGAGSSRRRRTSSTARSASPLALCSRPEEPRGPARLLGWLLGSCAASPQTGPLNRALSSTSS

[11] = biological target: T2, Prostaglandin D2 receptor 2; assay: Antagonist activity at CRTh2 (unknown origin) stably expressed in PGD2-stimulated CHO.K1 cells preincubated for 180 mins by radio-labelled [35S]-GTPgammaS binding assay; assay type: functional, cell-based
[12] = biological target: T2, Prostaglandin D2 receptor 2; assay: Antagonist activity at CRTh2 (unknown origin) stably expressed in PGD2-stimulated CHO.K1 cells preincubated for 15 mins by radio-labelled [35S]-GTPgammaS binding assay; assay type: functional, cell-based
[13] = Lipophilicity, log D of the compound by shake-flask method; assay type: physicochemical; conditions: octanol/water
[14] = Aqueous solubility of the compound at pH 1; assay type: physicochemical
[15] = Apparent permeability across basolateral to apical side of human Caco2 cells at pH 7.4; assay type: ADME, cell-based; conditions: Caco-2, pH 7.4
[16] = biological target: T2, Prostaglandin D2 receptor 2; assay: Antagonist activity at CRTh2 (unknown origin) stably expressed in CHO.K1 cells preincubated for 1 hr by radio-labelled [35S]-GTPgammaS binding assay in presence of 4% HSA; assay type: functional, cell-based
[17] = biological target: T2, Prostaglandin D2 receptor 2; assay: Antagonist activity at CRTh2 (unknown origin) stably expressed in PGD2-stimulated CHO.K1 cells preincubated for 30 mins by radio-labelled [35S]-GTPgammaS binding assay; assay type: functional, cell-based
[18] = Aqueous solubility of the compound at pH 7.4; assay type: physicochemical
[19] = Apparent permeability across apical to basolateral side of human Caco2 cells at pH 7.4; assay type: ADME, cell-based; conditions: Caco-2, pH 7.4
[20] = biological target: T3, Prostaglandin D2 receptor 2 (Homo sapiens) (UniProt Q9Y5Y4); conditions: CHO.K1
T3 sequence (whole entry): T2 sequence (Q9Y5Y4 whole entry)
Description: Antagonist activity at CRTh2 (unknown origin) stably expressed in PGD2-stimulated CHO.K1 cells assessed as dissociation half-life at 5 to 10 times IC50 after 2 hrs by radio-labelled [35S]-GTPgammaS binding assay

[21] = biological target: T4, Prostaglandin D2 receptor (Homo sapiens) (UniProt Q13258); assay: Inhibition of at prostanoid DP1 receptor (unknown origin) at 10 uM
T4 sequence (whole entry): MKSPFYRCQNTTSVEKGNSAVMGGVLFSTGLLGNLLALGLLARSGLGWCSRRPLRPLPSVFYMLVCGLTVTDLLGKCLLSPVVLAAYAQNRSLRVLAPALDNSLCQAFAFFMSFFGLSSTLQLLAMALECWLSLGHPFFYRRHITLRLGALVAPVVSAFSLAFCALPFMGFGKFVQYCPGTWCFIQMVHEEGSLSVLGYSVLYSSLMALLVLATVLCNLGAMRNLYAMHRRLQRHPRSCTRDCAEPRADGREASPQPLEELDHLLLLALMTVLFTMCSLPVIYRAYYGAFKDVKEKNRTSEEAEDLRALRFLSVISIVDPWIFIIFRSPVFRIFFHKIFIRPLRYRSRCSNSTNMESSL

[22] = Dissociation constant, pKa of the compound by potentiometric method; assay type: physicochemical
[23] = biological target: T2, Prostaglandin D2 receptor 2; assay: Antagonist activity at CRTh2 (unknown origin) stably expressed in CHO.K1 cells co-mixing the compound and PGD2 by radio-labelled [35S]-GTPgammaS binding assay; assay type: functional, cell-based
[24] = biological target: T2, Prostaglandin D2 receptor 2; assay: Antagonist activity at CRTh2 (unknown origin) stably expressed in PGD2-stimulated CHO.K1 cells preincubated for 120 mins by radio-labelled [35S]-GTPgammaS binding assay; assay type: functional, cell-based
[25] = biological target: T2, Prostaglandin D2 receptor 2; assay: Antagonist activity at CRTh2 (unknown origin) stably expressed in PGD2-stimulated CHO.K1 cells preincubated for 60 mins by radio-labelled [35S]-GTPgammaS binding assay; assay type: functional, cell-based
[26] = Terminal half life in rat at 1 mg/kg, iv; assay type: ADME, organism-based; parameters: dose 1 mg/kg, route intravenous; conditions: in vivo, read-out: beta t1/2 (converted)
[27] = Cmax in rat at 1 mg/kg, iv; assay type: ADME, organism-based; parameters: dose 1 mg/kg, route intravenous; conditions: in vivo
[28] = Terminal half life in rat at 10 mg/kg, po; assay type: ADME, organism-based; parameters: dose 10 mg/kg, route oral; conditions: in vivo, read-out: beta t1/2 (converted)
[29] = AUC (0 to infinity) in rat at 10 mg/kg, po; assay type: ADME, organism-based; parameters: time infinity, dose 10 mg/kg, route oral; conditions: plasma
[30] = Cmax in rat at 10 mg/kg, po; assay type: ADME, organism-based; parameters: dose 10 mg/kg, route oral; conditions: in vivo
[31] = AUC (0 to infinity) in rat at 1 mg/kg, iv; assay type: ADME, organism-based; parameters: time infinity, dose 1 mg/kg, route intravenous; conditions: plasma
Cavia porcellus = species on record: Cavia porcellus; assay: Antiinflammatory activity in guinea pig eosinophilia model; assay type: functional, organism-based
[32] = Clearance in rat at 1 mg/kg, iv; assay type: ADME, organism-based; parameters: dose 1 mg/kg, route intravenous; conditions: in vivo
[33] = Oral bioavailability in rat at 10 mg/kg; assay type: ADME, organism-based; conditions: in vivo
[34] = Volume of distribution at steady state in rat at 1 mg/kg, iv; assay type: ADME, organism-based; parameters: dose 1 mg/kg, route intravenous; conditions: in vivo, read-out: Vdss

SMILES | inhibition [9] | IC50 [10] | IC50 [11] | IC50 [12] | IC50 [17] | Papp A→B [19] | T1/2 [20] | inhibition [21] | pKa [22] | IC50 [23] | IC50 [24] | IC50 [25] | also measured
CCOC(=O)Cn1c(C)c(Cc2ccccc2S(=O)(=O)c2ccccc2)c2c1CCNC2=O | – | – | – | – | – | – | – | – | – | – | – | – | F (Rattus norvegicus [1]): 27%; beta t1/2 (Rattus norvegicus [2]): 7.4 h; AUC (Rattus norvegicus [3]): 4623 ng·h/mL; beta t1/2 (Rattus norvegicus [4]): 0.3 h; AUC (Rattus norvegicus [5]): 1726 ng·h/mL; Cmax (Rattus norvegicus [6]): 5370 ng/mL; Cmax (Rattus norvegicus [7]): 842 ng/mL; Vdss (Rattus norvegicus [8]): 0.25 L/kg
Cc1c(Cc2ccccc2S(=O)(=O)c2ccccc2)c2c(n1CC(=O)O)CCNC2=O | < 30% | 5 nM | 3 nM | 4.9 nM | 4.5 nM | 0.01 ×10⁻⁶ cm/s | 2.3 h | < 30% | 3 | 6.5 nM | 3 nM | 4 nM | logD [13]: 0.9; solubility [14]: 500 µg/mL (≈ 1140 µM); Papp B→A [15]: 0.1 ×10⁻⁶ cm/s; IC50 [16]: 10 nM; solubility [18]: 870 µg/mL (≈ 1980 µM)
Cc1c(Cc2ccccc2S(=O)(=O)c2ccccc2)c2c(n1CC(=O)O)CC(C)(C)NC2=O | < 30% | 4 nM | 2.1 nM | 6.3 nM | 5.5 nM | 1.1 ×10⁻⁶ cm/s | 10 h | < 30% | 3 | 7.7 nM | 2.9 nM | 4.2 nM | half-life [26]: 0.8 h; Cmax [27]: 5490 ng/mL; half-life [28]: 2.5 h; AUC(0-inf) [29]: 275 ng·h/mL; Cmax [30]: 126 ng/mL; AUC(0-inf) [31]: 2050 ng·h/mL; Activity (Cavia porcellus): Active; clearance [32]: 8.4 mL/min/kg; bioavailability [33]: 1.3%; Vd [34]: 0.19 L/kg

Reference: ChEMBL document CHEMBL3351921, “Structure-activity relationships (SAR) and structure-kinetic relationships (SKR) of pyrrolopiperidinone acetic acids as CRTh2 antagonists” (Bioorg Med Chem Lett, 2014)
